Key:
[1] = tested on: NMA neurotoxicity in 15-day old chick embryo retina; experiment: NMDA/KA Antagonist Assay: prevention of NMA neurotoxicity in chick embryo retina; type: cell-based; conditions: Gallus gallus, 0.5 h; NMA 200 μM, retina incubated 30 min at 37° C in BSS, complete protection in all specimens (n>6); read-out: antagonist potency vs NMA: concentration required to totally prevent a neurotoxic reaction
Protocol: Two agonists were employed in the present test, each at a concentration established previously to be the lowest concentration required to consistently cause a fully-developed retinal lesion: KA (25 μM) and NMA (200 μM). […] Internal controls in each experiment consisted of at least six specimens being incubated with agonist alone. […] The method of tissue preparation was as follows: 15-day old chick embryos were decapitated and their eyes removed and cut into quadrants after excising the cornea and removing the lens, vitreous and iris. The retinal quadrants were then gently separated from the pigment epithelium and incubated for 30 min. at 37° C. in BSS to which an agonist or agonist plus antagonist was added. The BSS contained 140 mM Na^+, 5.0 mM K^+, 0.5 mM Ca^++, 4 5 mM mG^++, 150 mM Cl^-, 5.6 mM glucose and bicarbonate/phosphate buffer (pH 7.3). After incubation for 30 min., the retinal quadrants were fixed by immersion in phosphate-buffered solution containing 1.5% glutaraldehyde and 1% paraformaldehyde, then additionally fixed in 1% osmium tetroxide, dehydrated in graded ethanols, cleared in toluene and embedded in araldite. Sections were cut 1 micron thick on a Sorval ultratome and stained with Methylene blue/Azure 11 for histopathological evaluation by light microscopy.

[2] = tested on: KA neurotoxicity in 15-day old chick embryo retina; experiment: NMDA/KA Antagonist Assay: prevention of KA neurotoxicity in chick embryo retina; type: cell-based; parameters: key: --: A dash signifies no antagonist action; conditions: KA 25 μM, retina incubated 30 min at 37° C in BSS
Protocol: A 15-day old chick embryo retina, incubated for 30 min. in a balanced sat solution (BSS) containing 1 mM Glu, developed a full lesion resembling that described in the immature mouse retina following s.c. administration of Glu. Other excitotoxin agonists also produce acute lesions within 30 min., each agent being effective at a concentration proportional to its known excitatory and toxic potencies. The pattern of cellular degeneration is restricted in each case to the ganglion cell, inner plexiform and inner nuclear layers, but within these areas certain agonists induce different patterns of degeneration, the differences being most pronounced between NMA and KA. Two agonists were employed in the present test, each at a concentration established previously to be the lowest concentration required to consistently cause a fully-developed retinal lesion: KA (25 μM) and NMA (200 μM). Procyclidine, biperiden and trihexyphenidyl were tested at various concentrations for their ability to prevent KA or NMA neurotoxicity. […] Internal controls in each experiment consisted of at least six specimens being incubated with agonist alone. A typical toxic reaction had to be present in all controls and absent from all experimental specimens in order to qualify as a blocking effect. The method of tissue preparation was as follows: 15-day old chick embryos were decapitated and their eyes removed and cut into quadrants after excising the cornea and removing the lens, vitreous and iris. The retinal quadrants were then gently separated from the pigment epithelium and incubated for 30 min. at 37° C. in BSS to which an agonist or agonist plus antagonist was added. The BSS contained 140 mM Na^+, 5.0 mM K^+, 0.5 mM Ca^++, […], 150 mM Cl^-, 5.6 mM glucose and bicarbonate/phosphate buffer (pH 7.3). After incubation for 30 min., the retinal quadrants were fixed by immersion in phosphate-buffered solution containing 1.5% glutaraldehyde and 1% paraformaldehyde, then additionally fixed in 1% osmium tetroxide, dehydrated in graded ethanols, cleared in toluene and embedded in araldite. […]

[3] = tested on: H/I neuronal degeneration in Sprague Dawley rats, 10 days old; type: in vivo
Protocol: A total of 30 Sprague Dawley rats, 10 days old, were used in this assay. Ten pups (5 control and 5 experimental) were studied on each of 3 separate days, the protocol being the same each day. A unilateral carotid ligation was performed under halothane anesthesia, and the incision was closed with super glue. After recovery from anesthesia, the experimental pups were given a subcutaneous injection of procyclidine (50 mg/kg in 0.1 ml aqueous solution, pH 7.4) and controls an equal volume sc injection of normal saline. Immediately thereafter, all 10 of the pups (half control and half experimental) were placed together in a large sealed transparent chamber and a partial vacuum was gradually created (pressure reduced from 760 to 200 mm Hg over a 1 minute period). A water bath surrounding the bottom half of the chamber kept the temperature inside at 38° C. After 75 minutes the pressure was returned gradually to 760 mm Hg over a 1 minute interval and, after a 2 hour observation period, the pups were anesthetized, the neck incision opened and the ligature removed from the carotid (a piece of tubing had originally been placed between the suture and vessel wall to facilitate subsequent removal of the suture without damage to the vessel wall). While still under anesthesia, the pups were sacrificed by perfusion fixation with aldehyde fixatives. Since the ligature had been removed from the occluded carotid, perfusate was able to distribute equally to the two hemispheres. After 15 minutes of perfusion, the brains were removed and sliced in 1 mm thick transverse slabs which were post fixed in osmium tetroxide, dehydrated in graded ethanols, cleared in toluene and embedded flat in araldite [J. W. Olney, "Glutamate-Induced Neuronal Necrosis In The Infant Mouse Hypothalamus: An Electron Microscopic Study", Neuropthol. Exp. Neurol., 30, 75-90 (1971)]. Sections (1 micron thick) were cut at 40 micron intervals and stained with azure II/methylene blue to permit a systematic microscopic evaluation of all regions of interest in each brain. In a large number of control infant rats (n>100) subjected to the above hypobaric/ischemic conditions, there has been shown a 90% survival rate (10% die in the hypobaric chamber) and a 94% incidence of brain damage which is always confined unilaterally to the side of the carotid ligation [J. M. Olney, "Hypoxia-Ischemia Causes Glutamate-Like Neuropathological changes in Infant Rat Brain", Neurosci Abst., 13, 1553 (1987)]. […] The damage in control rats consists of unilateral disseminated acute neuronal degeneration in some or all of the following regions: medial habenulum, dentate hippocampal gyrus, caudate nucleus, olfactory tubercle, islands of calleja, fronto-parietal neocortex and several thalamic nuclei. Two of 15 control and 2 of 15 experimental infants died in the hypobaric chamber. […] Among the 13 surviving procyclidine-treated pups, 10 had no damage in any of the above brain regions, 3 had small attenuated lesions, limited in two pups to the medial habenulum and in one to the caudate. […] Signs such as ataxia, head and body weaving, prostration and respiratory depression, which are sometimes seen in animals treated with antiexcitotoxic drugs, were not observed.

Compound	EC100 [1] [µM]	antagonist potency vs KA: concentration required to totally prevent a neurotoxic reaction [2]	treated animals with total protection against H/I neuronal degeneration ([3]; 50 mg/kg sc) [%]	number of surviving treated pups with no damage in any of the brain regions ([3]; 50 mg/kg sc, 13 surviving treated pups, carotid ligation plus 75 min hypobaric)	number of surviving treated pups with small attenuated lesions ([3]; 50 mg/kg sc, 13 surviving treated pups, two limited to medial habenulum, one to caudate)	treated animals with markedly reduced severity of neuropathology ([3]; 50 mg/kg sc, the remaining animals) [%]	side effects of the single dose ([3]; rat, in vivo)
OC(CCN1CCCCC1)(c1ccccc1)C1CC2C=CC1C2 (stereo not drawn) [Biperiden, α-bicyclo[2.2.1]hept-5-en-2-yl-α-phenyl-1-piperidinepropanol]	200	--					
OC(CCN1CCCC1)(c1ccccc1)C1CCCCC1 (stereo not drawn) [Procyclidine, α-cyclohexyl-α-phenyl-1-pyrrolidinepropanol]		--	~80	10	3	20	minimal side effects
OC(CCN1CCCCC1)(c1ccccc1)C1CCCCC1 (stereo not drawn) [Trihexyphenidyl, α-cyclohexyl-α-phenyl-1-piperidinepropanol]	125	--					

— patent US4945097A, “Aryl-cycloalkyl-alkanolamines for treatment of neurotoxic injury” (priority 1987, dated 1990)
